# Measurements taken from the supplement of paper PMC10331698.
# ± gives the standard deviation of the averaged measurements.
# Key:
# Assay in all cases: level (log10 ratio to DMSO vehicle control); higher = higher biomarker level / cell amount than vehicle control
# [1] = compound: C=CC(=O)OCC(F)(F)C(F)(F)C(F)(F)C(F)(F)C(F)(F)C(F)(F)C(F)(F)C(F)F [1H,1H,9H-Perfluorononyl acrylate]; details: in DMSO
# Method: (§1)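 BioMAP Diversity Plus panel of 12 human primary cell co-culture systems (3C, 4H, LPS, SAg, BT, BF4T, BE3C, CASM3C, HDF3CGF, KF3CT, MyoF, Mphg). Compounds were added 1 h before stimulation and left for 24 h (MyoF 48 h; BT 72 h for soluble read-outs or 6 d for IgG). Biomarkers were read by ELISA, cytotoxicity by SRB, PBMC viability and proliferation by Alamar Blue. Each well value was divided by the mean of 8 DMSO control wells on the same plate and log10 transformed; duplicate blinded samples were tested at 4 concentrations.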
# [2] = compound: OCCCC(F)(F)C(F)(F)C(F)(F)C(F)(F)C(F)(F)C(F)(F)C(F)(F)C(F)(F)F [3-(Perfluorooctyl)propanol]; details: 6700 nM; in DMSO
# Method: as §1
# [3] = compound: OCC(F)(F)C(F)(F)C(F)(F)C(F)(F)C(F)(F)C(F)(F)F [6:1 Fluorotelomer alcohol]; details: in DMSO
# Method: as §1
# [4] = compound: FC(F)(F)C(F)(F)C(F)(F)C(F)(F)CCI [1H,1H,2H,2H-Perfluorohexyl iodide]; details: in DMSO
# Method: as §1
# [5] = compound: O=P(O)(O)CCC(F)(F)C(F)(F)C(F)(F)C(F)(F)C(F)(F)C(F)(F)F [2-(Perfluorohexyl)ethylphosphonic acid]; details: in DMSO
# Method: as §1
# [6] = compound: C=C(C)C(=O)OCC(F)(F)C(F)(F)C(F)(F)F [2,2,3,3,4,4,4-Heptafluorobutyl methacrylate]; details: in DMSO
# Method: as §1
# [7] = compound: FC(F)(F)COC(OCC(F)(F)F)OCC(F)(F)F [tris(Trifluoroethoxy)methane]; details: in DMSO
# Method: as §1
Test System,level (log10) ([1]; 6700 nM),level (log10) ([1]; 20000 nM),level (log10) ([1]; 60000 nM),level (log10) [2],level (log10) ([3]; 6700 nM),level (log10) ([3]; 20000 nM),level (log10) ([3]; 60000 nM),level (log10) ([4]; 6700 nM),level (log10) ([4]; 20000 nM),level (log10) ([4]; 60000 nM),level (log10) ([5]; 6700 nM),level (log10) ([5]; 20000 nM),level (log10) ([5]; 60000 nM),level (log10) ([6]; 6700 nM),level (log10) ([6]; 20000 nM),level (log10) ([6]; 60000 nM),level (log10) ([7]; 6700 nM),level (log10) ([7]; 20000 nM),level (log10) ([7]; 60000 nM)
CASM3C:PAI-I,0.007 ± 0.0057,0.0045 ± 0.0035,-0.005 ± 0.028,-0.0165 ± 0.0092,-0.0035 ± 0.005,-0.0015 ± 0.00071,0.003 ± 0.0085,0.0135 ± 0.022,0.0165 ± 0.022,0.0125 ± 0.044,-0.0075 ± 0.00071,-0.0055 ± 0.005,0.007 ± 0.013,-0.003 ± 0.0042,0.0005 ± 0.0021,0.001 ± 0.0042,-0.003 ± 0.03,0.0015 ± 0.013,0.007 ± 0.0057
lMphg:sIL-10,-0.0335 ± 0.015,0.0005 ± 0.0092,0.029 ± 0.033,-0.027 ± 0.013,0.0065 ± 0.073,-0.0215 ± 0.013,-0.023 ± 0.0071,-0.072 ± 0.047,-0.043 ± 0.03,-0.0495 ± 0.042,-0.0015 ± 0.083,-0.091 ± 0.0014,-0.0775 ± 0.09,-0.0245 ± 0.028,-0.0155 ± 0.005,-0.0165 ± 0.0035,-0.045 ± 0.075,-0.061 ± 0.037,-0.0855 ± 0.091
KF3CT:CD54/ICAM-1,-0.0185 ± 0.005,-0.0245 ± 0.0078,-0.048 ± 0.0085,-0.062 ± 0.024,0.001 ± 0.0014,-0.005 ± 0.0071,0.016 ± 0.013,-0.0045 ± 0.025,0.016 ± 0.016,-0.005 ± 0.027,-0.0015 ± 0.011,0.006 ± 0.028,0.02 ± 0.02,0.0015 ± 0.016,-0.003 ± 0.016,0.0085 ± 0.005,-0.015,-0.021 ± 0.0014,-0.006 ± 0.023
MyoF:Decorin,-0.014 ± 0.024,-0.0655 ± 0.0021,-0.065 ± 0.052,0.0395 ± 0.033,0.004 ± 0.0071,0.0075 ± 0.0092,0.0005 ± 0.023,0.0085 ± 0.012,0.011 ± 0.025,0.024 ± 0.075,-0.0035 ± 0.023,0.0075 ± 0.0021,0.0385 ± 0.00071,0.018 ± 0.014,0.0075 ± 0.005,0.022 ± 0.0014,0.017 ± 0.025,0.0235 ± 0.013,0.0245 ± 0.021
MyoF:PAI-I,-0.0225 ± 0.0078,-0.0345 ± 0.047,-0.045 ± 0.0099,-0.0075 ± 0.021,0.0015 ± 0.0078,-0.006 ± 0.0042,0.0025 ± 0.019,0.0085 ± 0.0064,-0.003 ± 0.0071,0.0085 ± 0.03,-0.0305 ± 0.0092,-0.0115 ± 0.0064,0.0005 ± 0.013,-0.001 ± 0.0085,0.008 ± 0.0085,0.015 ± 0.0014,-0.0045 ± 0.018,-0.0035 ± 0.00071,0.008 ± 0.0042
BE3C:MMP-1,-0.023 ± 0.013,-0.009 ± 0.027,0.038 ± 0.064,0.064 ± 0.0042,-0.0115 ± 0.016,0 ± 0.0014,0.042 ± 0.013,0 ± 0.023,0.017 ± 0.021,0.0975 ± 0.023,0.002 ± 0.017,0.0005 ± 0.026,0.052 ± 0.075,-0.012 ± 0.0014,-0.0055 ± 0.015,0.048 ± 0.014,0.004 ± 0.059,0.004 ± 0.025,0.01 ± 0.0099
3C:CCL2/MCP-1,0.0115 ± 0.053,-0.017 ± 0.016,0.008 ± 0.024,0.003 ± 0.013,-0.005 ± 0.011,-0.005 ± 0.0014,-0.007 ± 0.033,0.015 ± 0.0014,-0.0195 ± 0.0092,0.0055 ± 0.026,0.001 ± 0.0042,-0.0035 ± 0.019,0.019 ± 0.054,-0.0015 ± 0.0035,-0.009 ± 0.0071,0.01 ± 0.027,-0.0065 ± 0.019,-0.0115 ± 0.022,0.021 ± 0.048
MyoF:MMP-1,-0.001 ± 0.054,0.0505 ± 0.0064,0.27 ± 0.033,0.0315 ± 0.011,-0.018 ± 0.014,-0.0295 ± 0.0078,0.15 ± 0.26,-0.0055 ± 0.023,-0.0045 ± 0.039,0.066 ± 0.11,0.008 ± 0.0042,0.008 ± 0.0099,0.0755 ± 0.052,-0.0215 ± 0.023,-0.0075 ± 0.0092,0.0165 ± 0.047,-0.0085 ± 0.039,-0.0145 ± 0.021,0.02 ± 0.044
BE3C:MMP-9,0.0015 ± 0.0035,-0.0185 ± 0.012,0 ± 0.021,0.036 ± 0.038,-0.0045 ± 0.037,-0.0065 ± 0.019,0.0155 ± 0.021,0.0015 ± 0.05,-0.006 ± 0.028,0.029 ± 0.047,-0.019 ± 0.0042,-0.0135 ± 0.012,0.007 ± 0.034,0.0155 ± 0.0092,-0.0075 ± 0.016,0.032 ± 0.025,-0.005 ± 0.0028,-0.004 ± 0.0014,0.0045 ± 0.019
HDF3CGF:Proliferation 72hr,-0.072 ± 0.079,-0.454 ± 0.021,-0.666 ± 0.15,-1.04 ± 0.033,-0.0265 ± 0.033,0.003 ± 0.011,-0.87 ± 0.098,0.0275 ± 0.025,0.0095 ± 0.076,0.006 ± 0.04,-0.009 ± 0.068,0.119 ± 0.021,0.191 ± 0.03,-0.0095 ± 0.087,0.001 ± 0.042,0.008 ± 0.0071,-0.038 ± 0.081,0.001 ± 0.038,-0.006 ± 0.038
KF3CT:CCL2/MCP-1,-0.0075 ± 0.043,-0.057 ± 0.024,-0.137 ± 0.085,-0.077 ± 0.025,0.012 ± 0.0014,0.009 ± 0.0099,-0.007 ± 0.0085,-0.0255 ± 0.026,-0.015 ± 0.04,-0.004 ± 0.047,-0.0405 ± 0.019,-0.0515 ± 0.023,-0.043 ± 0.013,0.026 ± 0.014,0.008 ± 0.0085,-0.0155 ± 0.0035,-0.021 ± 0.035,-0.029 ± 0.0085,0.0315 ± 0.052
CASM3C:SRB,0.0075 ± 0.015,0.005 ± 0.0014,-0.001 ± 0.014,-0.008 ± 0.0042,0.008,0.003 ± 0.0057,-0.04 ± 0.0042,0 ± 0.014,-0.0005 ± 0.0092,-0.005 ± 0.033,-0.0005 ± 0.0035,-0.012 ± 0.017,-0.016 ± 0.02,0.0045 ± 0.0021,-0.0005 ± 0.0092,-0.004 ± 0.0057,-0.0005 ± 0.011,-0.0065 ± 0.013,-0.0095 ± 0.013
MyoF:CD106/VCAM-1,-0.0025 ± 0.0035,-0.032 ± 0.0071,-0.163 ± 0.0057,-0.078 ± 0.044,-0.003 ± 0.0071,-0.009 ± 0.017,-0.002 ± 0.018,0.001 ± 0.0071,-0.0135 ± 0.015,-0.059 ± 0.014,0.0025 ± 0.011,0.01 ± 0.0014,-0.001,0.0045 ± 0.019,-0.006 ± 0.0057,0.0035 ± 0.025,-0.021 ± 0.034,-0.03 ± 0.028,-0.034 ± 0.0057
lMphg:SRB-Mphg,-0.1115 ± 0.00071,-0.082 ± 0.11,0.0085 ± 0.097,-0.049 ± 0.072,-0.0015 ± 0.0064,-0.02 ± 0.014,-0.0595 ± 0.054,-0.0005 ± 0.03,-0.004 ± 0.031,0.0005 ± 0.025,-0.029 ± 0.023,-0.0255 ± 0.026,-0.0125 ± 0.032,0.003,-0.0115 ± 0.016,0.0155 ± 0.016,-0.026 ± 0.013,-0.038 ± 0.044,-0.008 ± 0.027
lMphg:CD62E/E-Selectin,0 ± 0.0099,-0.004 ± 0.02,-0.01 ± 0.017,-0.0425 ± 0.066,0.009 ± 0.024,-0.008 ± 0.011,-0.002 ± 0.023,-0.021 ± 0.0071,-0.0105 ± 0.026,0.0315 ± 0.0064,-0.015 ± 0.013,-0.017 ± 0.0042,0.075 ± 0.0085,-0.0085 ± 0.015,-0.0005 ± 0.013,-0.031 ± 0.0028,0.023 ± 0.082,-0.0245 ± 0.076,-0.0085 ± 0.076
